Measured values reported in paper PMC6920997, “Total Phenolic and Flavonoid Content and Biological Activities of Extracts and Isolated Compounds of Cytisus villosus Pourr” (Biomolecules, 2019).
Values after ≈ are worked out from the molar mass of the structure shown. Like-named read-outs stand apart in the source and are kept apart here.

Tests used:
HepG2 cells = test: Cellular antioxidant activity (CAA) assay; format: cell-based
Description: The cellular antioxidant activity was measured in HepG2 cells as described by Wolfe and Rui. The antioxidant activity was expressed in terms of CAA units. The area under the curve (AUC) of fluorescence versus time plot was used to calculate CAA units as described by Wolfe and Rui.

[1] = test system: L. donovani promastigotes; test: Antileishmanial Alamar Blue assay, promastigotes; format: cell-based; conditions: Leishmania donovani; for IC50: read-out: L. donovani Promastigote IC50; for IC90: read-out: L. donovani Promastigote IC90
From the text: (§1) The in vitro antileishmanial and antitrypanosomal assays were done on cell cultures of L. donovani promastigotes, axenic amastigotes, THP1-amastigotes, and Trypanosoma brucei trypomastigotes by Alamar Blue assays. The conditions for seeding the THP1 cells, exposure to the test samples, and evaluation of cytotoxicity were the same as described in parasite-rescue and transformation assay. IC50 and IC90 values were computed from the dose response curves using XLfit software (XLfit 5.3.1, IDBS analytical, Boston MA, USA). DFMO (difluoromethylornithine) was used as the positive control. The antiprotozoal activity of C. villosus extracts and isolated compounds were evaluated in vitro against L. donovani promastigotes, axenic amastigotes, and intracellular amastigotes in THP1 cells. The extracts and some isolated compounds were also evaluated against T. brucei trypomastigote forms. All the extracts and compounds were simultaneously tested against THP1 cell for determination of general cytotoxicity. The extracts and isolated compounds were also evaluated for their antimalarial activity against chloroquine-sensitive (D6, Sierra Leone) and chloroquine-resistant strains (W2, Indochina) strains of Plasmodium falciparum. Furthermore, they were tested for cytotoxicity against the Vero cell line.

[2] = test system: L. donovani axenic amastigotes; test: Antileishmanial Alamar Blue assay, axenic amastigotes; format: cell-based; conditions: Leishmania donovani; for IC50: read-out: L. donovani Amastigote IC50; for IC90: read-out: L. donovani Amastigote IC90
From the text: as §1

[3] = test system: L. donovani intracellular amastigotes in THP1 cells; test: Antileishmanial assay, intracellular amastigotes in THP1 cells; format: cell-based; conditions: Leishmania donovani; for IC50: THP-1, read-out: L. donovani Amastigote/THP1 IC50; for IC90: THP-1, read-out: L. donovani Amastigote/THP1 IC90
From the text: as §1

[4] = test system: Trypanosoma brucei trypomastigotes; test: Antitrypanosomal Alamar Blue assay; format: cell-based; conditions: for IC50 / IC90: Trypanosoma brucei, Table 4; for IC50: read-out: T. brucei IC50; for IC90: read-out: T. brucei IC90
From the text: as §1

THP1 cytotoxicity = format: cell-based; conditions: human
From the text: as §1

THP1 cells = test: THP1 cytotoxicity; format: cell-based
From the text: as §1

Candida albicans = test: Antifungal assay C. albicans; format: cell-based; conditions: for IC50: pure compounds
Description: (§2) Extracts and pure compounds were tested for their antimicrobial activity against Staphylococcus aureus, methicillin-resistant S. aureus (MRSA), Escherichia coli, Pseudomonas aeruginosa, and Mycobacterium intracellulare. The antifungal activities were evaluated against a panel of pathogenic fungi, including Candida albicans, C. glabrata, C. krusei, Aspergillus fumigatus, and Cryptococcus neoformans, associated with opportunistic infections.

Aspergillus fumigatus = test: Antifungal assay A. fumigatus; format: cell-based
Description: as §2

Cryptococcus neoformans = test: Antifungal assay C. neoformans; format: cell-based; conditions: for IC50: pure compounds
Description: as §2

Staphylococcus aureus = test: Antibacterial assay S. aureus; format: cell-based; conditions: pure compounds
Description: as §2

[5] = test system: methicillin-resistant S. aureus (MRSA); test: Antibacterial assay MRSA; format: cell-based; conditions: Staphylococcus aureus
Description: as §2

Escherichia coli = test: Antibacterial assay E. coli; format: cell-based; conditions: for IC50: pure compounds
Description: as §2

Pseudomonas aeruginosa = test: Antibacterial assay P. aeruginosa; format: cell-based; conditions: for IC50: pure compounds
Description: as §2

iNOS = test: Inhibition of iNOS (intracellular NO production) in RAW 264.7 macrophages; format: cell-based; conditions: Mus musculus, RAW264.7; RAW 264.7 cells; NA = no activity at 25 µg/mL (pure compounds) or 100 µg/mL (extracts)
Description: The extracts and isolated compounds of C. villosus were evaluated in terms of their interaction with cellular targets related to inflammation and metabolic disorders, such as iNOS and NF-κB. The inhibition of intracellular NO production as a result of iNOS activity was assayed in mouse macrophages (RAW 264.7cells). Cytotoxicity of test samples to macrophages was also determined in parallel to check if the inhibition of iNOS was due to cytotoxic effects.

P. falciparum (D6 Clone) = test: Antimalarial assay, chloroquine-sensitive D6 clone; format: cell-based, Plasmodium falciparum; conditions: selectivity index = IC50 for cytotoxicity/IC50 for antimalarial activity
From the text: as §1

P. falciparum (W2 Clone) = test: Antimalarial assay, chloroquine-resistant W2 clone; format: cell-based, Plasmodium falciparum; conditions: selectivity index = IC50 for cytotoxicity/IC50 for antimalarial activity
From the text: as §1

[6] = Cytotoxicity against Vero cell line (antimalarial counterscreen); format: cell-based; conditions: African green monkey, Vero cells; column head does not name the cells; read-out: IC50 (third IC50 column of Table 7, presumably Vero cytotoxicity)
From the text: as §1

NF-κB = test: Reporter gene assay for the inhibition of NF-κB; format: cell-based; conditions: PMA-treated cells, luciferase reporter; NA = no activity at 25 µg/mL (pure compounds) or 100 µg/mL (extracts); read-out: Inhibition of NF-kB IC50
Description: Reporter gene assay for the inhibition of NF-κB Activity was performed as described earlier. In brief, cells transfected with NF-κB luciferase plasmid construct were plated in 96-well plates at a density of 1.25 × 10^5 cells/well. After 24 h, cells were treated with the test compounds and, after incubating for 30 min, phorbol 12-myristate 13-acetate (PMA) (Sigma-Aldrich, Burlington MA, USA) (70 ng/mL) was added and further incubated for 6−8 h. Luciferase activity was measured as described above. Percent decrease in luciferase activity was calculated relative to the vehicle control. Parthenolide (Sigma-Aldrich, Burlington MA, USA) was used as a positive control.

[7] = THP1 cells, read-out: THP1 Cytotoxicity IC50

Structure (SMILES)	IC50 [1] [µM]	IC90 [1] [µM]	IC50 [2] [µM]	IC90 [2] [µM]	IC50 [3] [µM]	IC90 [3] [µM]	IC50 [4] [µM]	IC90 [4] [µM]	IC50 (Candida albicans) [µg/mL]	IC50 (Cryptococcus neoformans) [µg/mL]	IC50 (Staphylococcus aureus) [µg/mL]	IC50 (Escherichia coli) [µg/mL]	IC50 (Pseudomonas aeruginosa) [µg/mL]	IC50 (iNOS) [µg/mL]	IC50 (NF-κB) [µg/mL]	IC50 (THP1 cytotoxicity; [7]) [µM]	THP1 Cytotoxicity C90 (THP1 cells) [µM]	other results
O=c1c(-c2ccc(O)cc2)coc2cc(O)cc(O)c12 [Compound 1, genistein]														9 (≈ 33.3 µM)	28 (≈ 104 µM)			
C[C@@H]1[C@H](O)[C@@H](C)/C=C/C=C/C=C/C=C/C=C/C=C/C=C/[C@H](O[C@@H]2O[C@H](C)[C@@H](O)[C@H](N)[C@@H]2O)C[C@@H]2O[C@](O)(C[C@@H](O)C[C@@H](O)[C@H](O)CC[C@@H](O)C[C@@H](O)CC(=O)O[C@H]1C)C[C@H](O)[C@H]2C(=O)O [Amphotericin B, reference compound]	0.136	0.215	0.211	0.374	0.188	0.421												IC50 (THP1 cytotoxicity): > 2 µM; THP1 Cytotoxicity C90 (THP1 cells; human): >2 µM; inhibition at 50 µg/mL (Candida albicans; Concentration: 50 μg/mL, <50 considered inactive, read-out: % Growth Inhibition C. albicans): 100%; inhibition at 50 µg/mL (Aspergillus fumigatus; Concentration: 50 μg/mL, <50 considered inactive, read-out: % Growth Inhibition A. fumigatus): 93%; inhibition at 50 µg/mL (Cryptococcus neoformans; Concentration: 50 μg/mL, <50 considered inactive, read-out: % Growth Inhibition C. neoformans): 100%; inhibition at 50 µg/mL ([5]; Concentration: 50 μg/mL, <50 considered inactive, read-out: % Growth Inhibition MRSA): 1%; inhibition at 50 µg/mL (Escherichia coli; Concentration: 50 μg/mL, <50 considered inactive, read-out: % Growth Inhibition E. coli): 0%; inhibition at 50 µg/mL (Pseudomonas aeruginosa; Concentration: 50 μg/mL, <50 considered inactive, read-out: % Growth Inhibition P. aeruginosa): 0%
O=c1c(O)c(-c2ccc(O)c(O)c2)oc2cc(O)cc(O)c12 [Quercetin, reference compound]																		% Decrease in Oxidative Stress (HepG2 cells; 25 µM): 77%

The next lines start with results.

IC50 [1] [µM]	IC90 [1] [µM]	IC50 [2] [µM]	IC90 [2] [µM]	IC50 [3] [µM]	IC90 [3] [µM]	IC50 [4] [µM]	IC90 [4] [µM]	IC50 (Candida albicans) [µg/mL]	IC50 (Cryptococcus neoformans) [µg/mL]	IC50 (Staphylococcus aureus) [µg/mL]	IC50 (Escherichia coli) [µg/mL]	IC50 (Pseudomonas aeruginosa) [µg/mL]	IC50 (iNOS) [µg/mL]	IC50 (NF-κB) [µg/mL]	Structure (SMILES)	IC50 (THP1 cytotoxicity; [7]) [µM]	THP1 Cytotoxicity C90 (THP1 cells) [µM]	other results
> 10	> 10	> 10	> 10	> 10	> 10	> 10	> 10	> 20	> 20	> 20	> 20	> 20			C[C@@H]1O[C@@H](O[C@@H]2[C@@H](O)[C@H](O)[C@@H](CO)O[C@H]2c2c(O)cc(O)c3c(=O)cc(-c4ccc(O)c(O)c4)oc23)[C@H](O)[C@H](O)[C@H]1O [Compound 4, 2″-O-α-L-rhamnosylorientin]	> 10	>10	% Decrease in Oxidative Stress (HepG2 cells; concentration 250 µg/mL): 28%; % Decrease in Oxidative Stress (HepG2 cells; concentration 500 µg/mL): 29%; % Decrease in Oxidative Stress (HepG2 cells; concentration 1000 µg/mL): 36%; T. brucei IC50 ([4]; as given in the text): didn’t show an effect; IC50 (Aspergillus fumigatus; pure compounds): > 20 µg/mL; IC50 ([5]; pure compounds): > 20 µg/mL
> 10	> 10	> 10	> 10	> 10	> 10	> 10	> 10	> 20	> 20	> 20	> 20	> 20	20 (≈ 48 µM)		O=c1cc(-c2ccccc2)oc2cc(O[C@@H]3O[C@H](CO)[C@@H](O)[C@H](O)[C@H]3O)cc(O)c12 [Compound 3, chrysin-7-O-β-D-glucopyranoside]	> 10	>10	SI (first SI column of Table 7, presumably D6) (P. falciparum (D6 Clone)): 1; SI (second SI column of Table 7, presumably W2) (P. falciparum (W2 Clone)): 1; IC50 [6]: > 4.76 µg/mL
													0.2 (≈ 0.805 µM)	1.63 (≈ 6.56 µM)	C=C1C(=O)O[C@H]2[C@H]1CC/C(C)=C/CC[C@@]1(C)O[C@@H]21 [Parthenolide, reference compound]			
